Patent publication US20100075854A1, “HERBICIDE COMBINATION COMPRISING DIMETHOSXYTRIAZINYL-SUBSTITUTED DIFLUOROMETHANESULFONYLANILIDES” (Bayer CropScience AG, priority 2008, published 2010)
Read-outs that look alike come from different tables or passages of the source.

Legend:
Assay in all cases: Post-emergence action, greenhouse pot test, visual scoring
Format in all cases: in vivo
[1] = tested on: Lolium multiflorum (LOLMU); conditions: read-out: % activity found; for inhibition at 4 g/ha: 4 g of ai/ha; for inhibition at 12 g/ha: 12 g of ai/ha
Protocol: (§1) Seeds or rhizome pieces of mono- and dicotyledonous harmful and useful plants were placed in peat pots (diameter 4 cm) filled with sandy loam and then covered with soil. The pots were kept in a greenhouse under optimum conditions. In addition, harmful plants encountered in paddy rice cultivation were cultivated in pots with a water level 2 cm above the soil surface.
(§2) About three weeks after the start of the cultivation, the test plants were treated at the 2- to 3-leaf stage. The herbicides, formulated as powder or liquid concentrates, were, either alone or in the combinations according to the invention, sprayed in various dosages on to the green parts of the plants using an application rate of 600 l of water/ha (converted). For further cultivation of the plants, the pots were then again kept under optimum conditions in a greenhouse.
(§3) The visual scoring of the herbicidal effects was carried out in intervals up to 21 days after the treatment. Scoring was carried out in percent in comparison to the untreated control plants. 0%=no herbicidal activity, 100%=complete herbicidal activity=complete kill.
(§4) The percentages from the treatments with the herbicides alone (=individual application) and with the combinations according to the invention (=mixtures) were employed to calculate interactions using the method of Colby. When the observed efficacies of the mixtures exceed the formal sum of the values of the tests with individual applications, they also exceed the expected value according to Colby, which is calculated using the formula below (cf. S. R. Colby; in Weeds 15 (1967) pp. 20 to 22):
(§5) • A, B=activity of components A and B in percent at a dosage of a and b g of ai/ha (=gramm of active substance per hectare), respectively. • E=expected value in % at a dosage of a+b g of ai/ha.

Avena fatua (AVEFA) = conditions: AVEFA, read-out: % activity found; for inhibition at 4 g/ha: 4 g of ai/ha; for inhibition at 12 g/ha: 12 g of ai/ha
Protocol: as §1, §2, §3, §4, §5

[2] = tested on: Amaranthus retroflexus (AMARE); conditions: AMARE, read-out: % activity found; for inhibition at 12 g/ha: 12 g of ai/ha
Protocol: as §1, §2, §3, §4, §5

Veronica persica (VERPE) = conditions: VERPE, read-out: % activity found; for inhibition at 12 g/ha: 12 g of ai/ha
Protocol: as §1, §2, §3, §4, §5

[3] = tested on: Fallopia (ex Polygonum) convolvulus (POLCO); conditions: POLCO, read-out: % activity found; for inhibition at 4 g/ha: 4 g of ai/ha; for inhibition at 12 g/ha: 12 g of ai/ha
Protocol: as §1, §2, §3, §4, §5

Viola tricolor (VIOTR) = conditions: VIOTR, read-out: % activity found; for inhibition at 4 g/ha: 4 g of ai/ha; for inhibition at 12 g/ha: 12 g of ai/ha
Protocol: as §1, §2, §3, §4, §5

[4] = tested on: Matricaria inodora (MATIN); conditions: Tripleurospermum inodorum, MATIN, read-out: % activity found; for inhibition at 4 g/ha: 4 g of ai/ha
Protocol: as §1, §2, §3, §4, §5

Zea mays (ZEAMX) = conditions: ZEAMX, read-out: % activity found; for inhibition at 4 g/ha: 4 g of ai/ha; for inhibition at 12 g/ha: 12 g of ai/ha
Protocol: as §1, §2, §3, §4, §5

Oryza sativa (ORYSA) = conditions: ORYSA, read-out: % activity found; for inhibition at 12 g/ha: 12 g of ai/ha
Protocol: as §1, §2, §3, §4, §5

[5] = tested on: Alopecurus myosuroides (ALOMY); conditions: 504 h, ALOMY, 21 DAT, read-out: % activity found
Protocol: as §1, §2, §3, §4, §5

[6] = tested on: Abuthilon theophrasti (ABUTH); conditions: Abutilon theophrasti, ABUTH, read-out: % activity found; for inhibition at 4 g/ha: 4 g of ai/ha; for inhibition at 12 g/ha: 12 g of ai/ha
Protocol: as §1, §2, §3, §4, §5

[7] = tested on: Triticum aestivum (TRZAS); conditions: TRZAS, read-out: % activity found; for inhibition at 4 g/ha: 4 g of ai/ha; for inhibition at 12 g/ha: 12 g of ai/ha
Protocol: as §1, §2, §3, §4, §5

[8] = tested on: Cyperus esculentus (CYPES); conditions: CYPES, 21 DAT
Protocol: as §1, §2, §3, §4, §5

[9] = tested on: Pharbitis purpurea (PHBPU); conditions: Ipomoea purpurea, PHBPU, read-out: % activity found; for inhibition at 4 g/ha: 4 g of ai/ha; for inhibition at 12 g/ha: 12 g of ai/ha
Protocol: as §1, §2, §3, §4, §5

COc1nc(OC)nc(C(=O)c2cccc(F)c2N(C)S(=O)(=O)C(F)F)n1 [A-1]
inhibition at 4 g/ha ([1]; 240 h, 10 DAT): 0% | inhibition at 12 g/ha ([1]; 240 h, 10 DAT): 10% | inhibition at 4 g/ha ([1]; 504 h, 21 DAT): 0% | inhibition at 12 g/ha ([1]; 504 h, 21 DAT): 10% | inhibition at 4 g/ha (Avena fatua (AVEFA); 240 h, 10 DAT): 40% | inhibition at 12 g/ha (Avena fatua (AVEFA); 240 h, 10 DAT): 50% | inhibition at 4 g/ha (Avena fatua (AVEFA); 504 h, 21 DAT): 10% | inhibition at 12 g/ha (Avena fatua (AVEFA); 504 h, 21 DAT): 30% | inhibition at 12 g/ha ([2]; 240 h, 10 DAT): 70% | inhibition at 4 g/ha ([2]; 504 h, 21 DAT, 4 g of ai/ha): 70% | inhibition at 12 g/ha ([2]; 504 h, 21 DAT): 75% | inhibition at 12 g/ha (Veronica persica (VERPE); 240 h, 10 DAT): 60% | inhibition at 4 g/ha (Veronica persica (VERPE); 504 h, 21 DAT, 4 g of ai/ha): 30% | inhibition at 12 g/ha (Veronica persica (VERPE); 504 h, 21 DAT): 40% | inhibition at 4 g/ha ([3]; 240 h, 10 DAT): 70% | inhibition at 12 g/ha ([3]; 240 h, 10 DAT): 70% | inhibition at 4 g/ha ([3]; 504 h, 21 DAT): 75% | inhibition at 12 g/ha ([3]; 504 h, 21 DAT): 70% | inhibition at 4 g/ha (Viola tricolor (VIOTR); 240 h, 10 DAT): 20% | inhibition at 12 g/ha (Viola tricolor (VIOTR); 240 h, 10 DAT): 20% | inhibition at 4 g/ha (Viola tricolor (VIOTR); 504 h, 21 DAT): 0% | inhibition at 12 g/ha (Viola tricolor (VIOTR); 504 h, 21 DAT): 10% | inhibition at 4 g/ha ([4]; 240 h, 10 DAT): 60% | inhibition at 4 g/ha ([4]; 504 h, 21 DAT): 50% | inhibition at 12 g/ha ([4]; 504 h, 21 DAT, 12 g of ai/ha): 60% | inhibition at 4 g/ha (Zea mays (ZEAMX); 240 h, 10 DAT): 0% | inhibition at 12 g/ha (Zea mays (ZEAMX); 240 h, 10 DAT): 0% | inhibition at 4 g/ha (Zea mays (ZEAMX); 504 h, 21 DAT): 0% | inhibition at 12 g/ha (Zea mays (ZEAMX); 504 h, 21 DAT): 0% | inhibition at 12 g/ha (Oryza sativa (ORYSA); 240 h, 10 DAT): 10% | inhibition at 4 g/ha (Oryza sativa (ORYSA); 504 h, 21 DAT, 4 g of ai/ha): 0% | inhibition at 12 g/ha (Oryza sativa (ORYSA); 504 h, 21 DAT): 10% | inhibition at 4 g/ha ([5]; 4 g of ai/ha): 40% | inhibition at 12 g/ha ([5]; 12 g of ai/ha): 50% | inhibition at 4 g/ha ([6]; 240 h, 10 DAT): 70% | inhibition at 12 g/ha ([6]; 240 h, 10 DAT): 70% | inhibition at 4 g/ha ([6]; 504 h, 21 DAT): 85% | inhibition at 12 g/ha ([6]; 504 h, 21 DAT): 85% | inhibition at 4 g/ha ([7]; 240 h, 10 DAT): 0% | inhibition at 12 g/ha ([7]; 240 h, 10 DAT): 0% | inhibition at 4 g/ha ([7]; 504 h, 21 DAT): 0% | inhibition at 12 g/ha ([7]; 504 h, 21 DAT): 0% | (7) % activity found ([8]; (5) dose of A-1 4, alone): 80% | (7) % activity found ([8]; (5) dose of A-1 12, alone): 80% | inhibition at 4 g/ha ([8]; Cyperus esculentus, 504 h, 4 g of ai/ha, read-out: % activity found): 80% | inhibition at 12 g/ha ([8]; Cyperus esculentus, 504 h, 12 g of ai/ha, read-out: % activity found): 80% | inhibition at 4 g/ha ([9]; 240 h, 10 DAT): 60% | inhibition at 12 g/ha ([9]; 240 h, 10 DAT): 60% | inhibition at 4 g/ha ([9]; 504 h, 21 DAT): 60% | inhibition at 12 g/ha ([9]; 504 h, 21 DAT): 65%
